From ChEMBL document CHEMBL5260801, “Structure Based Design of Non-Natural Peptidic Macrocyclic Mcl-1 Inhibitors” (ACS Med Chem Lett, 2017)

What was measured:
[1] = biological target: Induced myeloid leukemia cell differentiation protein Mcl-1/Bcl-2-like protein 11 (Homo sapiens, UniProt Q07820); experiment: Inhibition of N-terminal GST-tagged human recombinant Mcl-1 expressed in Escherichia coli /human Bim measured for 60 mins by TR-FRET based LanthaScreen Eu-Kinase binding assay
[2] = biological target: BCL2/BCL2L11 (Homo sapiens, UniProt P10415); experiment: Inhibition of his-tagged human recombinant Bcl-2 expressed in Escherichia coli /human Bim measured for 60 mins by TR-FRET based LanthaScreen Eu-Kinase binding assay
Sequence of BCL2/BCL2L11 (P10415 whole entry): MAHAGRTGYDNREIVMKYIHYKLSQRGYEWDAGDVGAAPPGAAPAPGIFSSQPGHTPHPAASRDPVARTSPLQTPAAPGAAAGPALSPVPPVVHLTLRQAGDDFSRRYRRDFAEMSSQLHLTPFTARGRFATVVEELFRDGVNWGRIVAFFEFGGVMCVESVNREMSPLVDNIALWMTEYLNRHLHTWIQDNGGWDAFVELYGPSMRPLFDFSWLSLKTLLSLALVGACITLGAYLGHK
Sequence of BCL2/BCL2L11 (O43521 whole entry, further chain): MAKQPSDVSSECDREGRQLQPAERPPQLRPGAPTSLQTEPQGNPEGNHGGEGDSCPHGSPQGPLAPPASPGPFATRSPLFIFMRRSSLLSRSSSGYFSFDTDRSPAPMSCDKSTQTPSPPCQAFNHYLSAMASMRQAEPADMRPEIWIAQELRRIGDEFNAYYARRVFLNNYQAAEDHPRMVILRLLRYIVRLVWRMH

[3] = biological target: T1, Induced myeloid leukemia cell differentiation protein Mcl-1 (Homo sapiens, UniProt Q07820); experiment: Binding affinity to N-terminal his6-tagged human recombinant Mcl-1 expressed in Escherichia coli assessed as binding constant (Kon) by SPR analysis
T1 sequence (Q07820 whole entry): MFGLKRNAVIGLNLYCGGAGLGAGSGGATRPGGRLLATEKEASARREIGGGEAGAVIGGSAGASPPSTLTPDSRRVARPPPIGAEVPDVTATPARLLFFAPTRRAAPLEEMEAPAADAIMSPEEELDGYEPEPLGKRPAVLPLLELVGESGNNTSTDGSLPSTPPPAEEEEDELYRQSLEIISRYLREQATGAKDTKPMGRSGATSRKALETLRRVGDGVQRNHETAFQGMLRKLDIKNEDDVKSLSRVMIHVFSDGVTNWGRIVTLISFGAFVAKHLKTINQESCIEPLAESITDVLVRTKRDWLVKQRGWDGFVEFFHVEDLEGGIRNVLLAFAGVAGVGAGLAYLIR

[4] = biological target: T1, Induced myeloid leukemia cell differentiation protein Mcl-1; experiment: Binding affinity to N-terminal his6-tagged human recombinant Mcl-1 expressed in Escherichia coli assessed as binding constant (Koff) by SPR analysis
[5] = biological target: T1, Induced myeloid leukemia cell differentiation protein Mcl-1; experiment: Binding affinity to N-terminal his6-tagged human recombinant Mcl-1 expressed in Escherichia coli assessed as dissociation constant by SPR analysis
[6] = biological target: Bcl-xL/BAK (Homo sapiens, UniProt Q07817); experiment: Inhibition of N-terminal GST-tagged Bcl-xL (1 to 209 residues) expressed in Escherichia coli /human Bak measured for 60 mins by TR-FRET based LanthaScreen Eu-Kinase binding assay
Sequence of Bcl-xL/BAK (Q07817 whole entry, the tested form may be a part): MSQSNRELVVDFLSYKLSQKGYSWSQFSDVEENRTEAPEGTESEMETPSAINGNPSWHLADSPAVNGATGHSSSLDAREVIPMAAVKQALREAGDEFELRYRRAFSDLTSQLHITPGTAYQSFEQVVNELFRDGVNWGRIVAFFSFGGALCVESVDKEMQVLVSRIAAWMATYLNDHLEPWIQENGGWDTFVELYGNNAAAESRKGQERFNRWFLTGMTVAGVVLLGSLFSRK
Sequence of Bcl-xL/BAK (Q16611 whole entry, further chain, the tested form may be a part): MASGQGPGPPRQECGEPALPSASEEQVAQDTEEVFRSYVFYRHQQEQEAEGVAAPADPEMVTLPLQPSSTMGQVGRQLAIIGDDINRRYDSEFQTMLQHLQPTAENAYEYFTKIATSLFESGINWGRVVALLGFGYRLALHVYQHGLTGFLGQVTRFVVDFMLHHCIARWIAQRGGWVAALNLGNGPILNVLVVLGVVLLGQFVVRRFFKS

[7] = tested on: MV4-11; experiment: Induction of apoptosis in human MV4-11 cells assessed as increase in caspase 3/7 activity measured after 6 hrs by Caspase-Glo 3/7 reagent based microplate reader analysis; assay type: functional, cell-based; conditions: MV4-11, 6 h

Sequence of Induced myeloid leukemia cell differentiation protein Mcl-1/Bcl-2-like protein 11 (Q07820 whole entry): as the sequence (Q07820 whole entry) above
Sequence of Induced myeloid leukemia cell differentiation protein Mcl-1/Bcl-2-like protein 11 (O43521 whole entry, further chain): as the sequence (O43521 whole entry, further chain) above

Row | Compound | IC50 [1] | IC50 [2] | K [3] | K [4] | Kd [5] | IC50 [6] | EC50 [7]
1 | CNC(=O)C[C@@H](Cc1ccc(Cl)c(Cl)c1)NC(=O)CN1C(=O)[C@@H](NC(=O)C[C@@H](N)Cc2ccc(Br)cc2)CCc2ccccc21 | 1490 nM | 1000 nM | – | – | – | – | –
2 | CNC(=O)C[C@@H](Cc1ccc(Cl)c(Cl)c1)NC(=O)CN1C(=O)[C@@H](NC(=O)C[C@@H](N)Cc2ccc(Cl)cc2)CCc2ccccc21 | 1990 nM | 1000 nM | – | – | – | – | –
3 | CN1CCCN[C@@H](Cc2ccc(Cl)cc2)CC(=O)N[C@H]2CCc3ccccc3N(CC(=O)N[C@H](Cc3ccc(Cl)c(/C=C/c4ccccc4)c3)CC1=O)C2=O | 2230 nM | 1000 nM | – | – | > 10000 nM | – | –
4 | CN1CCCN[C@@H](Cc2ccc(S(C)(=N)=O)cc2)CC(=O)N[C@H]2CCc3ccccc3N(CC(=O)N[C@H](Cc3ccc(Cl)c(Cl)c3)CC1=O)C2=O (stereo not given in full) | 510 nM | 1000 nM | 10.2 10^5/M.s | 0.476 s⁻¹ | 420 nM | – | –
5 | CNC(=O)C[C@@H](Cc1ccc(Cl)c(-c2ccc(Cl)c(C)c2)c1)NC(=O)CN1C(=O)[C@@H](NC(=O)C[C@@H](N)Cc2ccc(Cl)cc2)CCc2ccccc21 | 1930 nM | > 1000 nM | – | – | – | – | –
6 | CCN[C@H](CC(=O)N[C@H]1CCc2ccccc2N(CC(=O)N[C@@H](CC(=O)NC)Cc2ccc(Cl)c(Cl)c2)C1=O)Cc1ccc(Cl)cc1 | 2100 nM | 1000 nM | – | – | – | – | –
7 | CN1CCCN[C@@H](Cc2ccc([S+](C)[O-])cc2)CC(=O)N[C@H]2CCc3ccccc3N(CC(=O)N[C@H](Cc3ccc(Cl)c(Cl)c3)CC1=O)C2=O (stereo not given in full) | 742 nM | 1000 nM | – | – | 770 nM | – | –
8 | CN1CCCN[C@@H](Cc2ccc(S(C)(=O)=O)cc2)CC(=O)N[C@H]2CCc3ccccc3N(CC(=O)N[C@H](Cc3ccc(Cl)c(/C=C/c4ccccc4)c3)CC1=O)C2=O | 375 nM | > 1000 nM | – | – | 1200 nM | – | –
9 | CN(C)C(=O)C[C@@H](Cc1ccc(Cl)c(Cl)c1)NC(=O)CN1C(=O)[C@@H](NC(=O)C[C@@H](N)Cc2ccc(Cl)cc2)CCc2ccccc21 | 2250 nM | 1000 nM | – | – | – | – | –
10 | CN1CCCN[C@@H](Cc2ccc(Cl)cc2)CC(=O)N[C@H]2CCc3ccccc3N(CC(=O)N[C@H](Cc3ccc(Cl)c(-c4cc5ccccc5o4)c3)CC1=O)C2=O | 1050 nM | > 1000 nM | 1.6 10^5/M.s | 0.314 s⁻¹ | 3600 nM | – | –
11 | CNC(=O)C[C@@H](Cc1ccc(Cl)c(Cc2ccccc2)c1)NC(=O)CN1C(=O)[C@@H](NC(=O)C[C@@H](N)Cc2ccc(Cl)cc2)CCc2ccccc21 | 9210 nM | 1000 nM | – | – | – | – | –
12 | CNC(=O)C[C@@H](Cc1ccc(Cl)c(CCc2ccccc2)c1)NC(=O)CN1C(=O)[C@@H](NC(=O)C[C@@H](N)Cc2ccc(Cl)cc2)CCc2ccccc21 | 193 nM | 1000 nM | – | – | – | – | –
13 | CNC(=O)C[C@@H](Cc1ccc(Cl)cc1)NC(=O)CN1C(=O)[C@@H](NC(=O)C[C@@H](N)Cc2ccccc2)CCc2ccccc21 | 19500 nM | 1000 nM | – | – | – | – | –
14 | O=C1C[C@@H](Cc2ccc(Cl)c(Cl)c2)NC(=O)CN2C(=O)[C@H](CCc3ccccc32)NC(=O)C[C@H](Cc2ccc(Cl)cc2)NCCCN1 | 5210 nM | > 1000 nM | 0.53 10^5/M.s | 0.158 s⁻¹ | 4480 nM | – | –
15 | CNC(=O)C[C@@H](Cc1ccc(Cl)cc1)NC(=O)CN1C(=O)[C@@H](NC(=O)C[C@@H](N)Cc2ccc(Cl)cc2)CCc2ccccc21 | 12500 nM | 1000 nM | – | – | – | – | –
16 | CN1CCCN[C@@H](Cc2ccc(S(N)(=O)=O)cc2)CC(=O)N[C@H]2CCc3ccccc3N(CC(=O)N[C@H](Cc3ccc(Cl)c(Cl)c3)CC1=O)C2=O | 558 nM | 1000 nM | – | – | 720 nM | – | –
17 | C[C@@H]1CCN(C)C(=O)C[C@@H](Cc2ccc(Cl)c(Cl)c2)NC(=O)CN2C(=O)[C@H](CCc3ccccc32)NC(=O)C[C@H](Cc2ccc(Cl)cc2)N1 | 739 nM | 1000 nM | – | – | 3540 nM | – | –
18 | CN1CCCCCN[C@@H](Cc2ccc(Cl)cc2)CC(=O)N[C@H]2CCc3ccccc3N(CC(=O)N[C@H](Cc3ccc(Cl)c(Cl)c3)CC1=O)C2=O | 277 nM | 1000 nM | – | – | 530 nM | – | –
19 | CNC(=O)C[C@@H](Cc1cccc(Cl)c1)NC(=O)CN1C(=O)[C@@H](NC(=O)C[C@@H](N)Cc2ccc(Cl)cc2)CCc2ccccc21 | 57300 nM | > 1000 nM | – | – | – | – | –

The next compounds have a lower IC50 [1] than those just listed; values first:

Row | IC50 [1] | IC50 [2] | K [3] | K [4] | Kd [5] | IC50 [6] | EC50 [7] | Compound
20 | 133 nM | 1000 nM | – | – | – | – | – | CNC(=O)C[C@@H](Cc1ccc(Cl)c(CCc2ccccc2)c1)NC(=O)CN1C(=O)[C@@H](NC(=O)C[C@@H](N)Cc2ccc(S(C)(=O)=O)cc2)CCc2ccccc21
21 | 112 nM | 1000 nM | 6.6 10^5/M.s | 0.213 s⁻¹ | 290 nM | – | – | CN1CCCN[C@@H](Cc2ccc(S(C)(=O)=O)cc2)CC(=O)N[C@H]2CCc3ccccc3N(CC(=O)N[C@H](Cc3ccc(Cl)c(-c4ccc5ccccc5c4)c3)CC1=O)C2=O
22 | 47 nM | 1000 nM | – | – | – | – | – | CN1CCCN[C@@H](Cc2ccc(S(C)(=O)=O)cc2)CC(=O)N[C@H]2CCc3ccccc3N(CC(=O)N[C@H](Cc3ccc(Cl)c(C#Cc4ccccc4)c3)CC1=O)C2=O
23 | 122 nM | 1000 nM | 2.9 10^5/M.s | 0.082 s⁻¹ | 290 nM | – | – | CN1CCCCN[C@@H](Cc2ccc(Cl)cc2)CC(=O)N[C@H]2CCc3ccccc3N(CC(=O)N[C@H](Cc3ccc(Cl)c(Cl)c3)CC1=O)C2=O
24 | 155 nM | 1000 nM | 7.9 10^5/M.s | 0.212 s⁻¹ | 370 nM | – | – | CN1CCCN[C@@H](Cc2ccc(Cl)cc2)CC(=O)N[C@H]2CCc3ccccc3N(CC(=O)N[C@H](Cc3ccc(Cl)c(Cl)c3)CC1=O)C2=O
25 | 116 nM | 1000 nM | – | – | 100 nM | – | – | CN1CCCN[C@@H](Cc2ccc(S(C)(=O)=O)cc2)CC(=O)N[C@H]2CCc3ccccc3N(CC(=O)N[C@H](Cc3ccc(Cl)c(Cl)c3)CC1=O)C2=O
26 | 48 nM | 1000 nM | – | – | 120 nM | – | – | C[C@H]1CCN(C)C(=O)C[C@@H](Cc2ccc(Cl)c(Cl)c2)NC(=O)CN2C(=O)[C@H](CCc3ccccc32)NC(=O)C[C@H](Cc2ccc(Cl)cc2)N1
27 | < 3 nM | 5500 nM | 33 10^5/M.s | 0.066 s⁻¹ | 20 nM | > 99000 nM | 3780 nM | CN1CCCN[C@@H](Cc2ccc(S(C)(=O)=O)cc2)CC(=O)N[C@H]2CCc3ccccc3N(CC(=O)N[C@H](Cc3ccc(Cl)c(CCc4ccccc4)c3)CC1=O)C2=O
28 | 45 nM | 1000 nM | 3.7 10^5/M.s | 0.073 s⁻¹ | 340 nM | – | – | CN1CCCN[C@@H](Cc2ccc(Cl)cc2)CC(=O)N[C@H]2CCc3ccccc3N(CC(=O)N[C@H](Cc3ccc(Cl)c(CCc4ccccc4)c3)CC1=O)C2=O
29 | 116 nM | 1000 nM | 9.5 10^5/M.s | 0.336 s⁻¹ | 470 nM | – | – | CN1CCCN[C@@H](Cc2ccc(S(C)(=O)=O)cc2)CC(=O)N[C@H]2CCc3ccccc3N(CC(=O)N[C@H](Cc3ccc(Cl)c(-c4cc5ccccc5o4)c3)CC1=O)C2=O
